The results in this text go back to patent publication US9890176B2, “Mannose derivatives for treating bacterial infections” (Vertex Pharmaceuticals Incorporated, priority 2013, dated 2018).

The experiment concerns bacterial strain LF82 binding to the glycoprotein BSA-(Mannose)3. The experiment in a line: Bacterial Binding Assay (BBA). It counts as cell-based, Escherichia coli. The note with it: read-out: Bacterial Binding Assay IC50. A digest of the protocol: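 Luciferase-tagged E. coli LF82 grown overnight at 37° C without shaking, then added at 2×10^8 bacteria/mL (10^7 per well) to wells coated with 0.5-2 μg/mL BSA-(Man)3 and blocked with 2% BSA. Compound in 0.2% BSA/D-PBS; binding 40-75 min at room temperature. Washed; bound bacteria read by luciferase luminescence; IC50.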

In general, IC50 refers to the midpoint of a concentration-inhibition curve. As to `CCc1cc(-c2ccc(O[C@H]3O[C@H](CO)[C@@H](O)[C@H](O)[C@]3(C)O)c(CC)c2)ccc1O[C@H]1O[C@H](CO)[C@@H](O)[C@H](O)[C@]1(C)O` [Example 110, (2R,3S,4S,5S,6R)-2-[2-ethyl-4-[3-ethyl-4-[(2R,3S,4S,5S,6R)-3,4,5-trihydroxy-6-(hydroxymethyl)-3-methyl-tetrahydropyran-2-yl]oxy-phenyl]phenoxy]-6-(hydroxymethyl)-3-methyl-tetrahydropyran-3,4,5-triol], the IC50 amounted to 3 ± 1 nM. As to `C[C@@]1(O)[C@@H](Oc2ccc(-c3ccc(O[C@H]4O[C@H](CO)[C@@H](O)[C@H](O)[C@]4(C)O)c(C#N)c3)cc2C#N)O[C@H](CO)[C@@H](O)[C@@H]1O` [Example 111, 5-[3-cyano-4-[(2R,3S,4S,5S,6R)-3,4,5-trihydroxy-6-(hydroxymethyl)-3-methyl-tetrahydropyran-2-yl]oxy-phenyl]-2-[(2R,3S,4S,5S,6R)-3,4,5-trihydroxy-6-(hydroxymethyl)-3-methyl-tetrahydropyran-2-yl]oxy-benzonitrile], the IC50 came out at 6 ± 2 nM. As for `C[C@@]1(O)[C@@H](Oc2ccc(-c3ccc(O[C@H]4O[C@H](CO)[C@@H](O)[C@H](O)[C@]4(C)O)c(F)c3)cc2F)O[C@H](CO)[C@@H](O)[C@@H]1O` [Example 112, (2R,3S,4S,5S,6R)-2-[2-fluoro-4-[3-fluoro-4-[(2R,3S,4S,5S,6R)-3,4,5-trihydroxy-6-(hydroxymethyl)-3-methyl-tetrahydropyran-2-yl]oxy-phenyl]phenoxy]-6-(hydroxymethyl)-3-methyl-tetrahydropyran-3,4,5-triol], the figure is 68 ± 11 nM. Consider `Cc1ccc(-c2ccc(C)c(O[C@H]3O[C@H](CO)[C@@H](O)[C@H](O)[C@]3(C)O)c2)cc1O[C@H]1O[C@H](CO)[C@@H](O)[C@H](O)[C@]1(C)O` [Example 113, (2R,3S,4S,5S,6R)-6-(hydroxymethyl)-3-methyl-2-[2-methyl-5-[4-methyl-3-[(2R,3S,4S,5S,6R)-3,4,5-trihydroxy-6-(hydroxymethyl)-3-methyl-tetrahydropyran-2-yl]oxy-phenyl]phenoxy]tetrahydropyran-3,4,5-triol], for which the IC50 was determined as 15 ± 11 nM. With `C[C@@]1(O)[C@@H](Oc2ccc(-c3ccc(O[C@H]4O[C@H](CO)[C@@H](O)[C@H](O)[C@]4(C)O)c(OC(F)(F)F)c3)cc2OC(F)(F)F)O[C@H](CO)[C@@H](O)[C@@H]1O` [Example 114, (2R,3S,4S,5S,6R)-6-(hydroxymethyl)-3-methyl-2-[2-(trifluoromethoxy)-4-[3-(trifluoromethoxy)-4-[(2R,3S,4S,5S,6R)-3,4,5-trihydroxy-6-(hydroxymethyl)-3-methyl-tetrahydropyran-2-yl]oxy-phenyl]phenoxy]tetrahydropyran-3,4,5-triol], the IC50 came out at 1 ± 1 nM.

For `CC(C)c1cc(-c2ccc(O[C@H]3O[C@H](CO)[C@@H](O)[C@H](O)[C@]3(C)O)c(C(C)C)c2)ccc1O[C@H]1O[C@H](CO)[C@@H](O)[C@H](O)[C@]1(C)O` [Example 115, (2R,3S,4S,5S,6R)-6-(hydroxymethyl)-2-[2-isopropyl-4-[3-isopropyl-4-[(2R,3S,4S,5S,6R)-3,4,5-trihydroxy-6-(hydroxymethyl)-3-methyl-tetrahydropyran-2-yl]oxy-phenyl]phenoxy]-3-methyl-tetrahydropyran-3,4,5-triol], the IC50 is 4 ± 0.6 nM. For `Cc1cc(-c2ccc(-c3ccc(O[C@H]4O[C@H](CO)[C@@H](O)[C@H](O)[C@]4(C)O)c(C)c3)cc2)ccc1O[C@H]1O[C@H](CO)[C@@H](O)[C@H](O)[C@]1(C)O` [Example 116, (2R,3S,4S,5S,6R)-6-(hydroxymethyl)-3-methyl-2-[2-methyl-4-[4-[3-methyl-4-[(2R,3S,4S,5S,6R)-3,4,5-trihydroxy-6-(hydroxymethyl)-3-methyl-tetrahydropyran-2-yl]oxy-phenyl]phenyl]phenoxy]tetrahydropyran-3,4,5-triol], the IC50 was 30 ± 13 nM. With `Cc1cc(C#Cc2ccc(O[C@H]3O[C@H](CO)[C@@H](O)[C@H](O)[C@]3(C)O)c(C)c2)ccc1O[C@H]1O[C@H](CO)[C@@H](O)[C@H](O)[C@]1(C)O` [Example 117, (2R,3S,4S,5S,6R)-6-(hydroxymethyl)-3-methyl-2-[2-methyl-4-[2-[3-methyl-4-[(2R,3S,4S,5S,6R)-3,4,5-trihydroxy-6-(hydroxymethyl)-3-methyl-tetrahydropyran-2-yl]oxy-phenyl]ethynyl]phenoxy]tetrahydropyran-3,4,5-triol], the IC50 came to 15 ± 8 nM.

In the case of `Cc1cc(-c2cc(-c3ccc(O[C@H]4O[C@H](CO)[C@@H](O)[C@H](O)[C@]4(C)O)c(C)c3)cc(-c3ccc(O[C@H]4O[C@H](CO)[C@@H](O)[C@H](O)[C@]4(C)O)c(C)c3)c2)ccc1O[C@H]1O[C@H](CO)[C@@H](O)[C@H](O)[C@]1(C)O` [Example 118, (2R,3S,4S,5S,6R)-2-[4-[3,5-bis[3-methyl-4-[(2R,3S,4S,5S,6R)-3,4,5-trihydroxy-6-(hydroxymethyl)-3-methyl-tetrahydropyran-2-yl]oxy-phenyl]phenyl]-2-methyl-phenoxy]-6-(hydroxymethyl)-3-methyl-tetrahydropyran-3,4,5-triol], the IC50 amounted to 2 ± 0.7 nM. With `Cc1cc(-c2cncc(-c3ccc(O[C@H]4O[C@H](CO)[C@@H](O)[C@H](O)[C@]4(C)O)c(C)c3)c2)ccc1O[C@H]1O[C@H](CO)[C@@H](O)[C@H](O)[C@]1(C)O` [Example 119, (2R,3S,4S,5S,6R)-6-(hydroxymethyl)-3-methyl-2-[2-methyl-4-[5-[3-methyl-4-[(2R,3S,4S,5S,6R)-3,4,5-trihydroxy-6-(hydroxymethyl)-3-methyl-tetrahydropyran-2-yl]oxy-phenyl]-3-pyridyl]phenoxy]tetrahydropyran-3,4,5-triol], the IC50 was 0.6 ± 0.2 nM.

In the case of `Cc1cc(-c2cccc(-c3ccc(O[C@H]4O[C@H](CO)[C@@H](O)[C@H](O)[C@]4(C)O)c(C)c3)c2)ccc1O[C@H]1O[C@H](CO)[C@@H](O)[C@H](O)[C@]1(C)O` [Example 120, (2R,3S,4S,5S,6R)-6-(hydroxymethyl)-3-methyl-2-[2-methyl-4-[3-[3-methyl-4-[(2R,3S,4S,5S,6R)-3,4,5-trihydroxy-6-(hydroxymethyl)-3-methyl-tetrahydropyran-2-yl]oxy-phenyl]phenyl]phenoxy]tetrahydro-pyran-3,4,5-triol], the IC50 is 3 ± 2 nM. As to `Cc1cc(-c2cccc(-c3ccc(O[C@H]4O[C@H](CO)[C@@H](O)[C@H](O)[C@]4(C)O)c(C)c3)n2)ccc1O[C@H]1O[C@H](CO)[C@@H](O)[C@H](O)[C@]1(C)O` [Example 121, (2R,3S,4S,5S,6R)-6-(hydroxymethyl)-3-methyl-2-[2-methyl-4-[6-[3-methyl-4-[(2R,3S,4S,5S,6R)-3,4,5-trihydroxy-6-(hydroxymethyl)-3-methyl-tetrahydropyran-2-yl]oxy-phenyl]-2-pyridyl]phenoxy]tetrahydropyran-3,4,5-triol], the IC50 stood at 6 ± 0.8 nM. `Cc1cc(-c2ccnc(-c3ccc(O[C@H]4O[C@H](CO)[C@@H](O)[C@H](O)[C@]4(C)O)c(C)c3)c2)ccc1O[C@H]1O[C@H](CO)[C@@H](O)[C@H](O)[C@]1(C)O` [Example 122, (2R,3S,4S,5S,6R)-6-(hydroxymethyl)-3-methyl-2-[2-methyl-4-[2-[3-methyl-4-[(2R,3S,4S,5S,6R)-3,4,5-trihydroxy-6-(hydroxymethyl)-3-methyl-tetrahydropyran-2-yl]oxy-phenyl]-4-pyridyl]phenoxy]tetrahydropyran-3,4,5-triol]: the IC50 came out at 0.6 ± 0.3 nM. As to `Cc1cc(C2CC2c2ccc(O[C@H]3O[C@H](CO)[C@@H](O)[C@H](O)[C@]3(C)O)c(C)c2)ccc1O[C@H]1O[C@H](CO)[C@@H](O)[C@H](O)[C@]1(C)O` (stereo partly drawn) [Example 123, (2R,3S,4S,5S,6R)-6-(hydroxymethyl)-3-methyl-2-[2-methyl-4-[2-[3-methyl-4-[(2R,3S,4S,5S,6R)-3,4,5-trihydroxy-6-(hydroxymethyl)-3-methyl-tetrahydropyran-2-yl]oxy-phenyl]cyclopropyl]phenoxy]tetrahydropyran-3,4,5-triol], the half-maximal inhibitory concentration (IC50) is 1 ± 0.5 nM. On to `OC[C@H]1O[C@@]2(CCc3cc(O)ccc3O2)[C@@H](O)[C@@H](O)[C@@H]1O` [Example 124, (2R,3′S,4′S,5′S,6′R)-6′-(hydroxymethyl)spiro[chromane-2,2′-tetrahydropyran]-3′,4′,5′,6-tetrol], for which the IC50 turned out to be 650 ± 550 nM.

Take `OC[C@H]1O[C@@]2(CCc3cc(-c4ccc5c(c4)CC[C@]4(O5)O[C@H](CO)[C@@H](O)[C@H](O)[C@@H]4O)ccc3O2)[C@@H](O)[C@@H](O)[C@@H]1O` [Example 126, (2R,3′S,4′S,5′S,6′R)-6′-(hydroxymethyl)-6-[(2R,3′S,4′S,5′S,6′R)-3′,4′,5′-trihydroxy-6′-(hydroxymethyl)spiro[chromane-2,2′-tetrahydropyran]-6-yl]spiro[chromane-2,2′-tetrahydropyran]-3′,4′,5′-triol]: the IC50 is 8 nM. As for `OC[C@H]1O[C@@]2(CCc3cc(-c4cncc(-c5ccc6c(c5)CC[C@]5(O6)O[C@H](CO)[C@@H](O)[C@H](O)[C@@H]5O)c4)ccc3O2)[C@@H](O)[C@@H](O)[C@@H]1O` [Example 129, (2R,3′S,4′S,5′S,6′R)-6′-(hydroxymethyl)-6-[5-[(2R,3′S,4′S,5′S,6′R)-3′,4′,5′-trihydroxy-6′-(hydroxymethyl)spiro[chromane-2,2′-tetrahydropyran]-6-yl]-3-pyridyl]spiro[chromane-2,2′-tetrahydropyran]-3′,4′,5′-triol], the figure is 11 ± 6 nM; as for `CNC(=O)c1cccc(-c2ccc(O[C@H]3O[C@H](CO)[C@@H](O)[C@](C)(O)[C@@H]3O)c(C)c2)c1` [compound 25], 68 ± 18 nM; as for `CNC(=O)c1cccc(-c2ccc(O[C@H]3O[C@](C)(CO)[C@@H](O)[C@H](O)[C@@H]3O)c(C)c2)c1` [compound 26], 2370 ± 544 nM.

In the case of `CNC(=O)c1cccc(-c2ccc(O[C@H]3O[C@H]([C@H](C)O)[C@@H](O)[C@H](O)[C@@H]3O)c(C)c2)c1` [compound 27], the IC50 is 165 ± 49 nM.

On to `C[C@H](O)[C@H]1O[C@H](Oc2ccc(N3CCc4cc([N+](=O)[O-])ccc43)cc2Cl)[C@@H](O)[C@@H](O)[C@@H]1O` [compound 28], for which the IC50 turned out to be 1300 nM.
